Data on 19 molecules can be found in patent US5834506A, “Dihydropyrones with improved antiviral activity” (Warner-Lambert Company, priority 1997, dated 1998).

The structures appear in SMILES notation. Counter-ions that a name gives are not always drawn. Like-named read-outs stand apart in the source and are kept apart here.

The target in series [1] is T1, HIV-1 protease (Human immunodeficiency virus type 1 group M subtype B, UniProt P04585).
T1 construct: Recombinant HIV-1 protease (>96% purity); purchased Bachem Bioscience Inc. (King of Prussia, PA)
The series can be described thus: biochemical. To be noted: read-out: Inhib of HIV-Protease IC50. From the text:
The testing of specific 5,6-dihydropyrones as inhibitors of the HIV aspartyl protease, based on the study of the hydrolysis of an undecapeptide enzyme substrate, and the testing of the 5,6-dihydropyrones as inhibitors of viral growth and infectivity, based on the study of infection of H9 cell lines by the HIV-1iiib strain, are also disclosed. […] The methods employed follow the procedures of Tummino, et al. (Archives of Biochemistry and Biophysics 1995, 316, 523).
(§1) The compounds of the present invention were evaluated for their in vitro inhibition of HIV-1 protease and for their antiviral efficacy in HIV infected lymphocytes.
Recombinant HIV-1 protease (>96% purity) and HIV protease substrate III (the undecapeptide H-His-Lys-Ala-Arg-Val-Leu-Nph-Glu-Ala-Nle-Ser-NH2,>97% purity) were purchased from Bachem Bioscience Inc. (King of Prussia, PA).
The methods employed follow the procedures of Tummino, et al. (Archives of Biochemistry and Biophysics 1995, 316, 523). […] (total volume, 100 μl). […] The final inhibitor concentrations used were 0 (0.1, 0.2, in some experiments), 0.5, 1, 2, 5, 10, 20, 50, and 100 μM. The solution was mixed, incubated for 5 minutes and the reaction quenched by addition of trifluoracetic acid, 2% final. The (leu-p-nitro-phe) bond of the substrate is cleaved by the enzyme and substrate and products separated by reverse-phase HPLC. Absorbance was measured at 220 nm, peak areas determined, and percentage conversion to product used to calculate percentage control (=[% conversion (+inhibitor)/% conversion (-inhibitor)]×100).

The test system of series [2] is HIV in lymphocyte derived CEM cells. The series can be described thus: Cellular Infection Assay, antiviral efficacy in HIV infected CEM cells (XTT cytopathic procedure). To be noted: Human immunodeficiency virus 1, CCRF-CEM, CEM cells; for EC95: protecting the cells 95% relative to untreated control; for EC50: reduces HIV cytopathic effects 50% relative to untreated control, read-out: Antiviral Efficacy EC50. In kind it is cell-based. The method, then:
as §1
(§2) Compounds were tested in lymphocyte derived CEM cells using the XTT cytopathic procedures and were performed at Southern Research Institute (Buckheit, et. al. Antiviral Res. 1993, 21, 247; see also Weislow, et al. J Nat. Cancer Inst., 1989, 81, 577). Compound concentrations were 0.32, 1, 3.2, 10, 32 and 100 uM. The EC50 represents the concentration of agent which reduces HIV cytopathic effects 50% relative to untreated control. EC95 represents the concentration of agent protecting the cells 95% relative to untreated control. Cellular toxicity of the agents are estimated from the TC50 which represents the concentration of the agent which inhibits 50% of the viability of uninfected cells.

A short description of series [3]: Cellular toxicity in uninfected CEM cells (TC50). The class given is cell-based. To be noted: human, inhibits 50% of the viability of uninfected cells. As to the method: as §2
Setting [4] is: 6.0 nM HIV-1 protease, 40 μM substrate III, 37° C., 5 minutes.

For `Cc1cc(SC2=C(O)CC(C)(CCc3ccc(O)cc3)OC2=O)c(C(C)(C)C)cc1OCCO` (racemic) [Example 1, 3-[2-tert-Butyl-4-(2-hydroxy-ethoxy)-5-methyl-phenylsulfanyl]-4-hydroxy-6-[2-(4-hydroxy-phenyl)-ethyl]-6-methyl-5,6-dihydro-pyran-2-one, (+/-)], the IC50 in series [1] (setting [4]) was 0.0068 µM. Further, in series [2], the EC95 turned out to be 18 µM and the EC50 was 3.4 µM. In series [3], this molecule showed a CC50 of more than 100 µM.
For the molecule `Cc1cc(SC2=C(O)CC(CCc3ccc(O)cc3)(C(C)C)OC2=O)c(C(C)(C)C)cc1CO` (racemic) [Example 2, 3-[2-tert-Butyl-4-hydroxymethyl-5-methyl-phenylsulfanyl]-4-hydroxy-6-[2-(4-hydroxy-phenyl)-ethyl]-6-isopropyl-5,6-dihydro-pyran-2-one, (+/-)], the IC50 in series [1] turned out to be 0.0036 µM. Besides, in series [2], the EC95 came to 1 µM and the EC50 stood at 0.6 µM. In series [3], this molecule gave a CC50 of more than 100 µM.
Consider `CCNS(=O)(=O)Oc1cc(C(C)(C)C)c(SC2=C(O)CC(C)(CCc3ccc(O)cc3)OC2=O)cc1C` (racemic) [Example 3], for which the IC50 in series [1] (setting [4]) came to 0.0023 µM. For the same molecule, in series [2], the EC95 stood at 12 µM and the EC50 stood at 1.5 µM. This molecule showed a CC50 in series [3] of 66 µM.
For `Cc1cc(SC2=C(O)CC(C)(CCc3ccc(O)cc3)OC2=O)c(C(C)(C)C)cc1OS(=O)(=O)N(C)C` (racemic) [Example 4], the IC50 in series [1] stood at 0.0016 µM. For the same molecule, in series [2], it took 17 µM to reach the 95% level (EC95) and the EC50 amounted to 2.5 µM. In series [3], this molecule yielded a CC50 of 71 µM.
For the molecule `Cc1cc(SC2=C(O)CC(CCc3ccc(O)cc3)(C(C)C)OC2=O)c(C(C)(C)C)cc1OCCO` (racemic) [Example 5, 3-[2-tert-Butyl-4-(2-hydroxy-ethoxy)-5-methyl-phenylsulfanyl]-4-hydroxy-6-[2-(4-hydroxy-phenyl)-ethyl]-6-isopropyl-5,6-dihydro-pyran-2-one, (+/-)], in series [1] (setting [4]), the IC50 amounted to 0.0028 µM. Further, in series [2], the EC95 was determined as 3.2 µM and the EC50 was 1.5 µM. In addition, the CC50 in series [3] was determined as 66 µM.
As for `Cc1cc(SC2=C(O)CC(C)(CCc3ccc(O)cc3)OC2=O)c(C(C)(C)C)cc1OS(=O)(=O)NC(C)(C)C` (racemic) [Example 6, tert-Butyl-sulfamic acid 5-tert-Butyl-4-{4-hydroxy-6-[2-(4-hydroxy-phenyl)-ethyl]-6-methyl-2-oxo-5,6-dihydro-2H-pyran-3-ylsulfanyl}-2-methyl-phenyl ester, (+/-)], the IC50 in series [1] (setting [4]) was found to be 0.0038 µM. Besides, in series [2], it took 8.5 µM to reach the 95% level (EC95) and the EC50 was determined as 2.3 µM. In series [3], this molecule yielded a CC50 of 56 µM.
`CCCCC1(CCc2ccc(O)cc2)CC(O)=C(Sc2cc(C)c(CO)cc2C(C)(C)C)C(=O)O1` (racemic) [Example 7, 6-Butyl-3-[2-tert-butyl-4-hydroxymethyl-5-methyl-phenylsulfanyl]-4-hydroxy-6-[2-(4-hydroxy-phenyl)-ethyl]-5,6-dihydro-pyran-2-one, (+/-)]: the IC50 in series [1] (setting [4]) is 0.0041 µM. For the same molecule, in series [2], the EC95 was 3 µM and the EC50 turned out to be 0.9 µM. Half-maximal cytotoxicity in series [3] (CC50) was put at 63 µM.
Consider `Cc1ccc(C(C)(C)C)c(SC2=C(O)CC(CCc3ccccc3)(c3ccccc3)OC2=O)c1` (racemic) [Ref B, 3-(2-tert-Buty5-methyl-phenylsulfanyl)-4-hydroxy-6-phenethyl-6-phenyl-5,6-dihydro-pyran-2-one, (+/-), reference compound], for which the IC50 in series [1] worked out at 0.035 µM. Further, the EC50 in series [2] was more than 55 µM. In addition, the CC50 in series [3] was found to be 55 µM.
For `CCNS(=O)(=O)Oc1cc(C(C)(C)C)c(SC2=C(O)CC(CCc3ccc(O)cc3)(C3CCCCC3)OC2=O)cc1C` (stereo not drawn) [Example 8, Ethyl-sulfamic acid 5-tert-butyl-4-{6-cyclohexyl-4-hydroxy-6-[2-(4-hydroxy-phenyl)-ethyl]-2-oxo-5,6-dihydro-2H-pyran-3-ylsulfanyl}-2-methyl-phenyl ester], the IC50 in series [1] (setting [4]) is 0.0048 µM. In addition, in series [2], the EC95 is 5.3 µM and the EC50 is 1.4 µM. The molecule also came in with a CC50 in series [3] of 67 µM.
Turning to `Cc1cc(SC2=C(O)CC(CCc3ccc(O)cc3)(C3CCCCC3)OC2=O)c(C(C)(C)C)cc1CO` (stereo not drawn) [Example 9, 3-(2-tert-Butyl-4-hydroxymethyl-5-methyl-phenylsulfanyl)-6-cyclohexyl-4-hydroxy-6-[2-(4-hydroxy-phenyl)-ethyl]-5,6-dihydro-pyran-2-one], the IC50 in series [1] came to 0.0025 µM. Also, in series [2], the EC95 worked out at 1.2 µM and the EC50 worked out at 0.5 µM. Moreover, in series [3], the CC50 worked out at 75 µM.
On to `Cc1cc(SC2=C(O)CC(CCc3ccc(O)cc3)(C3CCCCC3)OC2=O)c(C(C)(C)C)cc1O` (stereo not drawn) [Example 10, 3-(2-tert-Butyl-4-hydroxy-5-methyl-phenylsulfanyl)-6-cyclohexyl-4-hydroxy-6-[2-(4-hydroxy-phenyl)-ethyl]-5,6-dihydro-pyran-2-one], for which the IC50 in series [1] (setting [4]) is 0.0029 µM. In addition, in series [2], it took 8.9 µM to reach the 95% level (EC95) and the 50% effective concentration (EC50) stood at 3.1 µM. Besides, the midpoint of cytotoxicity in series [3], the CC50, lay at 73 µM.
The matching figures for `Cc1cc(SC2=C(O)CC(C)(CCc3ccc(O)cc3)OC2=O)c(C(C)(C)C)cc1N` (stereo not drawn) [Example 11, 3-(4-Amino-2-tert-butyl-5-methyl-phenylsulfanyl)-4-hydroxy-6-[2-(4-hydroxy-phenyl)-ethyl]-6-methyl-5,6-dihydro-pyran-2-one monohydrochloride]: 0.013 µM, 9.1 µM, 3.7 µM and more than 100 µM.
The like results for `Cc1cc(SC2=C(O)CC(C)(CCc3ccc(O)cc3)OC2=O)c(C(C)(C)C)cc1NS(=O)(=O)c1ccc(C#N)cc1` (stereo not drawn) [Example 13, N-(5-tert-Butyl-4-{4-hydroxy-6-[2-(4-hydroxy-phenyl)-ethyl]-6-methyl-2-oxo-5,6-dihydro-2H-pyran-3-ylsulfanyl}-2-methyl-phenyl)-4-cyano-benzenesulfonamide] were, in that order, 0.0021 µM, 20 µM, 5 µM and more than 100 µM.
The like results for `Cc1cc(SC2=C(O)CC(CCc3ccc(O)cc3)(CCc3ccc(O)cc3)OC2=O)c(C(C)(C)C)cc1CO` [Example 14, 3-(2-tert-Buty-4-hydroxymethyl-5-methyl-phenylsulfanyl)-4-hydroxy-6,6-bis-[2-(4-hydroxyphenyl)ethyl]-5,6-dihydro-pyran-2-one] were, in that order, 0.0013 µM, 24 µM, 6.3 µM and 69 µM.
For `Cc1cc(SC2=C(O)CC(CCc3ccc(N)cc3)(c3ccccc3)OC2=O)c(C(C)(C)C)cc1CO` (stereo not drawn) [Example 15, 6-[2-(4-aminophenyl)ethyl]-3-(2-tert-butyl-4-hydroxymethyl-5-methyl-phenylsulfanyl)-4-hydroxy-6-phenyl-5,6-dihydro-pyran-2-one], the IC50 in series [1] (setting [4]) stood at 0.0031 µM. Moreover, in series [2], the 95% effect level (EC95) was put at 9.4 µM and the EC50 worked out at 3.7 µM. Moreover, the CC50 in series [3] came to 94 µM.
For the molecule `Cc1cc(SC2=C(O)CC(CCc3ccc(N)cc3)(CCc3ccc(N)cc3)OC2=O)c(C(C)(C)C)cc1CO` [Example 16, 6,6-Bis-[2-(4-aminophenyl)ethyl]-3-(2-tert-butyl-4-hydroxymethyl-5-methyl-phenylsulfanyl)-4-hydroxy-5,6-dihydro-pyran-2-one], the IC50 in series [1] (setting [4]) amounted to 0.0016 µM. In series [2], the EC95 stood at 15 µM and the EC50 was 1.2 µM. Moreover, it took 72 µM to reach half-maximal cytotoxicity in series [3] (CC50).
Consider `Cc1cc(SC2=C(O)C[C@@](CCc3cccc(O)c3)(C3CCCC3)OC2=O)c(C(C)(C)C)cc1CO` [Example 40], for which, in series [2], the concentration for an effect of 95% (EC95) is less than 0.3 µM and the EC50 is less than 0.3 µM. In series [3], this molecule displayed a CC50 of more than 100 µM.
With `CCc1cc(SC2=C(O)CC(CCc3ccc(O)cc3)(C(C)C)OC2=O)c(C(C)(C)C)cc1CO` (stereo not drawn) [Example 97], in series [2], the EC95 was found to be 2.8 µM and the EC50 is 0.8 µM. The CC50 in series [3] was more than 100 µM.
The matching figures for `Cc1cc(CCC2(C(C)C)CC(O)=C(Sc3cc(C)c(CO)cc3C(C)(C)C)C(=O)O2)ccc1O` (stereo not drawn) [Example 100]: 0.9 µM, 0.33 µM and 84 µM.

The IC50 is the concentration that inhibits the measured activity by half. For orientation: EC95 means the concentration at which the effect reaches the 95% level. Higher therefore signals a need for much substance. What is called EC50 is the concentration giving half of the maximal effect. One may read the CC50 as the concentration at which the toxic effect on the cells reaches its halfway point. High values mean lower toxicity to the cells, low ones greater toxicity to the cells.
